Each structure is given as a SMILES string.

One series can be described thus: Pharmacokinetics, mouse study: plasma AUCinf of metabolites after dosing Compound (4). To be noted: female CD-1 mice, single intraperitoneal dose of 1 mg/mouse of Compound (4), metabolite AUCinf relative to Compound (4). It is filed as in vivo. The procedure:
(§1) The pharmacokinetics of Compounds (1)-(4) was determined in mice, rats, and monkeys.
Female CD-1 mice (n=9) received a single intraperitoneal dose of 1 mg/mouse of Compound (4). The dosing formulation was prepared prior to dose, with 2 mg/mL of Compound (4) in 4% DMSO and 96% PBS. Blood samples were collected from the mice at designated timepoints. Following collection, samples were centrifuged (2500 rpm for 10 minutes at 4° C.) and the resulting plasma was recovered and stored frozen (−60° C.).
Bioanalysis of the plasma samples was performed for Compounds (1)-(4). Mouse plasma samples were extracted by protein precipitation and analyzed by UPLC-MSMS using a Waters UPLC and API 5000® triple quadrupole mass spectrometer (AB Sciex, Toronto, Canada) with a Waters Acquity® UPLC BEH C18 column (50 mm×2.1 mm, 1.7 μm particle size). Acquisition and chromatographic peak integration were performed using Analyst® 1.7 Software. The standard curve regression and quantification of analytes in the samples was performed using the Analyst® Software.
Pharmacokinetic parameters were calculated based on the plasma concentration data for Compound (4) and the metabolites Compound (1)-(3) by non-compartmental methods using WinNonlin® Software, version 8.1 (Certara®, Inc). The area under the concentration time curve (AUCinf) was calculated for Compounds (1)-(4). The percent AUCinf (% AUCinf) for each metabolite was calculated as the ratio of the AUCinf for each respective metabolite divided by the AUCinf for Compound (4).
In the case of `CNc1cccc2c(S(=O)(=O)Nc3ccc(CN4CCOCC4)cc3)cccc12` [Compound (1), 5-(methylamino)-N-(4-(morpholinomethyl)phenyl)naphthalene-1-sulfonamide], the “% AUCinf (100×AUCmetabolite/AUCCompound(4))” value is reported as 31%.

As to `CNc1cccc2c(S(=O)(=O)Nc3ccc(CN4CCOCC4=O)cc3)cccc12` [Compound (2), 5-(methylamino)-N-(4-((3-oxomorpholino)methyl)phenyl)naphthalene-1-sulfonamide], the “% AUCinf (100×AUCmetabolite/AUCCompound(4))” value is reported as 10%.

As to `CN(C)c1cccc2c(S(=O)(=O)Nc3ccc(CN4CCOCC4=O)cc3)cccc12` [Compound (3), 5-(dimethylamino)-N-(4-((3-oxomorpholino)methyl)phenyl)naphthalene-1-sulfonamide], the “% AUCinf (100×AUCmetabolite/AUCCompound(4))” value worked out at 9%.

A further series is described as follows: Pharmacokinetics, rat study: plasma AUCinf of metabolites after dosing Compound (4). The class given is in vivo. To be noted: male Sprague-Dawley rats, single intravenous bolus dose of 10 mg/kg Compound (4), metabolite AUCinf relative to Compound (4). The procedure: as §1
Male Sprague-Dawley rats (n=3) received a single intravenous bolus dose of 10 mg/kg Compound (4). The dosing formulation was prepared by prior to dosing, with 5 mg/mL of Compound (4) in 14% sulphobutylether-β-cyclodextrin (SBECD) in deionized water (w/v). Blood samples were collected from each rat at designated timepoints. Following collection, the samples were centrifuged (2500 rpm for 10 minutes at approximately 4° C.) and the resulting plasma was recovered and stored frozen (−60° C.).
Bioanalysis of the samples was performed for Compounds (1)-(4). Rat plasma samples were extracted by protein precipitation and analyzed by UPLC-MSMS using a Waters UPLC and API 5000® triple quadrupole mass spectrometer (AB Sciex, Toronto, Canada) with a Waters Acquity® UPLC BEH C18 column (50 mm×2.1 mm, 1.7 μm particle size). Acquisition and chromatographic peak integration were performed using Analyst® 1.7 Software. The standard curve regression and quantification of analytes in the samples was performed using the Analyst® Software.
Pharmacokinetic parameters were calculated from the plasma concentration data for Compound (4) and the metabolites Compounds (1)-(3) by non-compartmental methods using WinNonlin® Software, version 8.1 (Certara®, Inc). The area under the concentration time curve (AUCinf) was calculated for Compounds (1)-(4). The percent AUCinf for the metabolites was calculated as the ratio of the AUCinf for each respective metabolite divided by the AUCinf for Compound (4).
For `CNc1cccc2c(S(=O)(=O)Nc3ccc(CN4CCOCC4)cc3)cccc12` [Compound (1), 5-(methylamino)-N-(4-(morpholinomethyl)phenyl)naphthalene-1-sulfonamide], the “% AUCinf (100×AUCmetabolite/AUCCompound(4))” value came to 9%.

In the case of `CNc1cccc2c(S(=O)(=O)Nc3ccc(CN4CCOCC4=O)cc3)cccc12` [Compound (2), 5-(methylamino)-N-(4-((3-oxomorpholino)methyl)phenyl)naphthalene-1-sulfonamide], the “% AUCinf (100×AUCmetabolite/AUCCompound(4))” value was 48%.

`CN(C)c1cccc2c(S(=O)(=O)Nc3ccc(CN4CCOCC4=O)cc3)cccc12` [Compound (3), 5-(dimethylamino)-N-(4-((3-oxomorpholino)methyl)phenyl)naphthalene-1-sulfonamide]: the “% AUCinf (100×AUCmetabolite/AUCCompound(4))” value was found to be 11%.

The next series is described as follows: Pharmacokinetics, monkey study: plasma AUCinf of metabolites after dosing Compound (4). The note with it: male cynomolgus monkeys, single 2 hour intravenous infusion of 5 mg/kg Compound (4), metabolite AUCinf relative to Compound (4). The class given is in vivo. Here is the method:
as §1
Male cynomolgus monkeys (n=3) received a single intravenous infusion over a period of 2 hours at a dose of 5 mg/kg Compound (4) (2.5 mL/kg/hour). The dosing formulation was prepared prior to dose, with 1 mg/mL of Compound (4) in 14% sulphobutylether-β-cyclodextrin (SBECD) in deionized water (w/v). Blood samples were collected from each monkey at designated timepoints. Following collection, the samples were centrifuged (2500 rpm for 10 minutes at 4° C.) and the resulting plasma was recovered and stored frozen (−60° C.).
Bioanalysis of samples was performed for Compounds (1)-(4). The monkey plasma samples were extracted by protein precipitation and analyzed by UPLC-MSMS using a Waters UPLC and API 5000® triple quadrupole mass spectrometer (AB Sciex, Toronto, Canada) with an ACE® Excel® 2 C18 column (50 mm×3.0 mm, 2 μm particle size) or a Waters Acquity® UPLC BEH C18 column (50 mm×2.1 mm, 1.7 μm). Acquisition and chromatographic peak integration were performed using Analyst® Software, version 1.6.3. The standard curve regression and quantification of analytes in the samples was performed using Watson LIMS® Software, version 7.4.1 (Thermo Fisher Scientific, Philadelphia, USA) or the Analyst® Software.
Pharmacokinetic parameters were calculated from plasma concentration data for Compound (4) and its metabolites by non-compartmental methods using WinNonlin® Software, version 8.1 (Certara®, Inc). The area under the concentration time curve (AUCinf) was calculated for Compounds (1)-(4). The percent AUCinf for each of the metabolites was calculated as the ratio of the AUCinf of each respective metabolite divided by the AUCinf of Compound (4).
For `CNc1cccc2c(S(=O)(=O)Nc3ccc(CN4CCOCC4)cc3)cccc12` [Compound (1), 5-(methylamino)-N-(4-(morpholinomethyl)phenyl)naphthalene-1-sulfonamide], the “% AUCinf (100×AUCmetabolite/AUCCompound(4))” value turned out to be 64%.

With `CNc1cccc2c(S(=O)(=O)Nc3ccc(CN4CCOCC4=O)cc3)cccc12` [Compound (2), 5-(methylamino)-N-(4-((3-oxomorpholino)methyl)phenyl)naphthalene-1-sulfonamide], the “% AUCinf (100×AUCmetabolite/AUCCompound(4))” value is 132%.

As to `CN(C)c1cccc2c(S(=O)(=O)Nc3ccc(CN4CCOCC4=O)cc3)cccc12` [Compound (3), 5-(dimethylamino)-N-(4-((3-oxomorpholino)methyl)phenyl)naphthalene-1-sulfonamide], the “% AUCinf (100×AUCmetabolite/AUCCompound(4))” value is 7%.

The values are drawn from patent publication US12331024B2, “Substituted naphthyl P38alpha mitogen-activated protein kinase inhibitors” (GEN1E LIFESCIENCES INC., priority 2021, dated 2025).
